Results taken from US7091354B2, “Processes for the preparation of peripheral opioid antagonist compounds and intermediates thereto” (Adolor Corporation, priority 2002, dated 2006).

C=C(C(=O)OC)C(O)c1ccccc1 (single isomer, unassigned)
melting point: 51 °C

C=C(C(=O)OC)[C@@H](O)c1ccccc1 (single isomer, unassigned)
melting point: 48 °C
